Experimental data taken from patent US20110236312A1, “NUCLEOSIDE ANALOGUES USEFUL AS POSITRON EMISSION TOMOGRAPHY (PET) IMAGING AGENTS” (IMPERIAL INNOVATIONS LIMITED, priority 2008, published 2011).

Tests used:
HCT116 cells = experiment: Acid insoluble fraction measurements (radiotracer incorporation into DNA); assay type: cell-based; settings: HCT116 human colon cancer cells in culture
Protocol: Acid extraction was performed to separate radioactivity associated with small molecules, RNA, and proteins from that of DNA. HCT116 cells were cultured in triplicate in 100 mm dishes and the cells were used for DNA extraction at 24 hr. Briefly 5 ml of the assay medium containing 50 μCi of tracer was added to each dish and the dishes incubated at 37° C. for 60 min. After incubation, the medium was removed, and cells were washed twice with ice-cold phosphate-buffered saline (PBS) and 100 μl aliquots of the washings were placed in counting tubes for counting. After washing, the cells were harvested by scraping, collected into counting tubes and then centrifuged at 1200 g at 4° C. for 10 minutes. The cells were homogenized in 1 mL of ice-cold 10% perchloric acid ([…] and centrifuged. The acid-soluble fraction (supernatant) was removed and 100 μl aliquots were counted in a gamma counter. The radioactivity in the acid-insoluble precipitate (largely DNA) was counted separately.

HCT116 tumour = experiment: Dynamic PET imaging of tumour bearing mice; assay type: in vivo
Protocol: All animal experiments were done by licensed investigators in accordance with the United Kingdom Home Office Guidance on the Operation of the Animal (Scientific Procedures) Act 1986 and within guidelines set out by the United Kingdom Coordinating Committee for Cancer Research's Ad hoc Committee on Welfare of Animals in Experimental Neoplasia. Both tumour-bearing (Balb/c nude mice) and non-tumour bearing (Balb/c mice) animals were used. Human colon, HCT116, tumours were grown in Balb/c nu/nu mice (Harlan) as previously reported. Tumour dimensions were measured continuously using a caliper and tumour volumes were calculated by the equation: volume=(π/6)×a×b×c, where a, b, and c represent three orthogonal axes of the tumour. Mice were used when their tumours reached approximately 100 mm^3
Dynamic [^18F]FTT imaging scans were carried out on a dedicated small animal PET scanner, Siemens Inveon PET module, Siemens Molecular Imaging Inc., Knoxville, USA). The features of this instrument have been described previously. For scanning the tail veins of vehicle- or drug-treated mice were cannulated after induction of anaesthesia (isofluorane/O2/N2O). […] The count densities were averaged for all ROIs at each of the 19 time points to obtain a time versus radioactivity curve (TAC). […]

[1] = Radio-HPLC metabolite analysis; assay type: in vivo; settings: HCT116 tumour bearing mice, i.v., 30 min post injection, plasma, liver, kidney, urine, FIG. 5
Protocol: [^18F]FTT was produced using the method described above. HCT116 tumour bearing mice were injected intravenously via the lateral tail vein with [^18F]FTT (3.7 MBq) and after 30 min post injection were sacrificed by exsanguination via cardiac puncture under isofluorane anesthesia and then tissue removed. Samples were then snap frozen using dry ice and stored until use. To plasma (0.2 ml) was added ice-cold acetonitrile (1.5 ml) and the sample centrifuged (3 min, 4° C., 15493×g). The supernatant was then decanted and evaporated to dryness using a rotary evaporator (bath temperature 40° C.). The sample was then redissolved in 10% ethanol in PBS (1.1 ml) and filtered through a 0.22 μm filter and then injected. Tumour, liver and kidney samples were homogenised in ice-cold acetonitile (1.5 ml) using an IKA Turrax homogeniser and then processed as for plasma samples. Urine samples were diluted with 10% ethanol in PBS (1.1 ml) and filtered through a 0.22 μm filter and then injected.
HPLC conditions: Agilent 1100 series HPLC system (Agilent Technologies, Stockport, UK) equipped with a γ-RAM Model 3 gamma-detector (IN/US Systems Inc., Florida, USA) and the Laura 3 software (LabLogic, Sheffield, UK). […]

tissue pharmacokinetics (time versus radioactivity curves) (HCT116 tumour; 60 min dynamic scan, FIG. 4): simple tissue pharmacokinetics | metabolic stability [1]: metabolically stable in mice
Compound: Cc1cn([C@H]2C[C@H](O)[C@@H](CO)S2)c(=O)n(Cc2cn(CC[18F])nn2)c1=O [[^18F]FTT, [^18F]N^3-((1-(2-Fluoroethyl)-1H-[1,2,3]-triazol-4-yl)methyl)-4′-thio-β-thymidine]
incorporation into tumour cells in culture (HCT116 cells): readily incorporated | localisation on PET images (HCT116 tumour; i.v. via tail vein, FIG. 3): localisation in tumour, kidney, liver and the early part of the small intestines
